What was measured:
[1] = tested on: OVCAR-5; test: Growth inhibition of human OVCAR5 cells incubated for 48 hrs by sulforhodamine B assay; assay type: functional, cell-based; conditions: OVCAR-5, 48 h
[2] = tested on: Malme-3M; test: Growth inhibition of human MALME-3M cells assessed as cell growth at 1 uM incubated for 48 hrs by sulforhodamine B assay relative to control; assay type: functional; conditions: read-out: Activity
[3] = tested on: SK-MEL-2; test: Growth inhibition of human SK-MEL-2 cells incubated for 48 hrs by sulforhodamine B assay; assay type: functional, cell-based; conditions: SK-MEL-2, 48 h
[4] = tested on: ACHN; test: Growth inhibition of human ACHN cells assessed as cell growth at 0.1 uM incubated for 48 hrs by sulforhodamine B assay relative to control; assay type: functional; conditions: read-out: Activity
[5] = tested on: SN12C; test: Growth inhibition of human SN12C cells incubated for 48 hrs by sulforhodamine B assay; assay type: functional, cell-based
[6] = tested on: 786-0; test: Growth inhibition of human 786-0 cells incubated for 48 hrs by sulforhodamine B assay; assay type: functional, cell-based; conditions: 786-0, 48 h
[7] = tested on: SR; test: Growth inhibition of human SR cells assessed as cell growth at 0.1 uM incubated for 48 hrs by sulforhodamine B assay relative to control; assay type: functional; conditions: read-out: Activity
[8] = tested on: NCI-H322M; test: Growth inhibition of human NCI-H322M cells incubated for 48 hrs by sulforhodamine B assay; assay type: functional, cell-based
[9] = tested on: SN12C; test: Growth inhibition of human SN12C cells assessed as cell growth at 1 uM incubated for 48 hrs by sulforhodamine B assay relative to control; assay type: functional; conditions: read-out: Activity
[10] = tested on: SK-MEL-28; test: Growth inhibition of human SK-MEL-28 cells assessed as cell growth at 100 uM incubated for 48 hrs by sulforhodamine B assay relative to control; assay type: functional; conditions: SK-MEL-28, 48 h, read-out: Activity
[11] = tested on: COLO 205; test: Growth inhibition of human COLO205 cells assessed as cell growth at 0.01 uM incubated for 48 hrs by sulforhodamine B assay relative to control; assay type: functional; conditions: COLO 205, 48 h, read-out: Activity
[12] = tested on: UACC-62; test: Growth inhibition of human UACC62 cells assessed as cell growth at 0.1 uM incubated for 48 hrs by sulforhodamine B assay relative to control; assay type: functional; conditions: UACC-62, 48 h, read-out: Activity
[13] = tested on: HL-60(TB); test: Growth inhibition of human HL-60(TB) cells assessed as cell growth at 100 uM incubated for 48 hrs by sulforhodamine B assay relative to control; assay type: functional; conditions: HL-60, 48 h, read-out: Activity
[14] = tested on: 786-0; test: Growth inhibition of human 786-0 cells assessed as cell growth at 0.01 uM incubated for 48 hrs by sulforhodamine B assay relative to control; assay type: functional; conditions: 786-0, 48 h, read-out: Activity
[15] = tested on: PC-3; test: Growth inhibition of human PC3 cells assessed as cell growth at 0.01 uM incubated for 48 hrs by sulforhodamine B assay relative to control; assay type: functional; conditions: PC-3, 48 h, read-out: Activity
[16] = tested on: UACC-257; test: Growth inhibition of human UACC257 cells assessed as cell growth at 1 uM incubated for 48 hrs by sulforhodamine B assay relative to control; assay type: functional; conditions: UACC-257, 48 h, read-out: Activity
[17] = tested on: PC-3; test: Growth inhibition of human PC3 cells assessed as cell growth at 100 uM incubated for 48 hrs by sulforhodamine B assay relative to control; assay type: functional; conditions: PC-3, 48 h, read-out: Activity
[18] = tested on: RXF 393; test: Growth inhibition of human RXF393 cells assessed as cell growth at 0.01 uM incubated for 48 hrs by sulforhodamine B assay relative to control; assay type: functional; conditions: RXF 393, 48 h, read-out: Activity
[19] = tested on: SK-MEL-2; test: Growth inhibition of human SK-MEL-2 cells assessed as cell growth at 0.01 uM incubated for 48 hrs by sulforhodamine B assay relative to control; assay type: functional; conditions: SK-MEL-2, 48 h, read-out: Activity
[20] = tested on: HCT-116; test: Growth inhibition of human HCT116 cells assessed as cell growth at 0.1 uM incubated for 48 hrs by sulforhodamine B assay relative to control; assay type: functional; conditions: HCT-116, 48 h, read-out: Activity
[21] = tested on: NCI-H460; test: Growth inhibition of human NCI-H460 cells assessed as cell growth at 1 uM incubated for 48 hrs by sulforhodamine B assay relative to control; assay type: functional; conditions: NCI-H460, 48 h, read-out: Activity
[22] = tested on: RXF 393; test: Growth inhibition of human RXF393 cells assessed as cell growth at 100 uM incubated for 48 hrs by sulforhodamine B assay relative to control; assay type: functional; conditions: RXF 393, 48 h, read-out: Activity
[23] = tested on: SF-539; test: Growth inhibition of human SF539 cells assessed as cell growth at 0.01 uM incubated for 48 hrs by sulforhodamine B assay relative to control; assay type: functional; conditions: SF-539, 48 h, read-out: Activity
[24] = tested on: MOLT-4; test: Growth inhibition of human MOLT4 cells assessed as cell growth at 0.1 uM incubated for 48 hrs by sulforhodamine B assay relative to control; assay type: functional; conditions: MOLT-4, 48 h, read-out: Activity
[25] = tested on: NCI/ADR-RES; test: Growth inhibition of human NCI/ADR-RES cells assessed as cell growth at 100 uM incubated for 48 hrs by sulforhodamine B assay relative to control; assay type: functional; conditions: read-out: Activity
[26] = tested on: HOP-62; test: Growth inhibition of human HOP62 cells assessed as cell growth at 0.01 uM incubated for 48 hrs by sulforhodamine B assay relative to control; assay type: functional; conditions: HOP-62, 48 h, read-out: Activity
[27] = tested on: SK-OV-3; test: Growth inhibition of human SKOV3 cells assessed as cell growth at 100 uM incubated for 48 hrs by sulforhodamine B assay relative to control; assay type: functional; conditions: SK-OV-3, 48 h, read-out: Activity
[28] = tested on: RXF 393; test: Growth inhibition of human RXF393 cells assessed as cell growth at 0.1 uM incubated for 48 hrs by sulforhodamine B assay relative to control; assay type: functional; conditions: RXF 393, 48 h, read-out: Activity
[29] = tested on: SNB-19; test: Growth inhibition of human SNB19 cells assessed as cell growth at 0.1 uM incubated for 48 hrs by sulforhodamine B assay relative to control; assay type: functional; conditions: SNB-19, 48 h, read-out: Activity
[30] = tested on: MOLT-4; test: Growth inhibition of human MOLT4 cells incubated for 48 hrs by sulforhodamine B assay; assay type: functional, cell-based; conditions: MOLT-4, 48 h
[31] = read-out: LC50 (the source's name)
[32] = read-out: pLC50 (the source's name) (converted)

SMILES: COc1cc(Cl)cc(-c2nn(-c3cccc(NC(=O)c4cccc(C(F)(F)F)c4)c3)cc2-c2ccncc2)c1
- GI50 ([1]; read-out: GI50): > 100 µM
- CC50 [1, 31]: > 100 µM
- TGI ([1]; read-out: TGI): > 100 µM
- GI50 ([1]; read-out: pGI50 (converted)): > 100 µM
- CC50 [1, 32]: > 100 µM
- TGI ([1]; read-out: pTGI (converted)): > 100 µM
- growth at 1 µM [2]: 82%
- GI50 ([3]; read-out: GI50): 0.78 µM
- CC50 [3, 31]: > 100 µM
- TGI ([3]; read-out: TGI): > 100 µM
- GI50 ([3]; read-out: pGI50 (converted)): 6.76 µM
- CC50 [3, 32]: > 100 µM
- TGI ([3]; read-out: pTGI (converted)): > 100 µM
- growth at 0.1 µM [4]: 98%
- GI50 ([5]; read-out: GI50): > 100 µM
- LC50 ([5]; read-out: LC50): > 100 µM
- TGI ([5]; read-out: TGI): > 100 µM
- GI50 ([5]; read-out: pGI50 (converted)): > 100 µM
- LC50 ([5]; read-out: pLC50 (converted)): > 100 µM
- TGI ([5]; read-out: pTGI (converted)): > 100 µM
- GI50 ([6]; read-out: GI50): 1.57 µM
- CC50 [6, 31]: > 100 µM
- TGI ([6]; read-out: TGI): > 100 µM
- GI50 ([6]; read-out: pGI50 (converted)): 16.6 µM
- CC50 [6, 32]: > 100 µM
- TGI ([6]; read-out: pTGI (converted)): > 100 µM
- growth at 0.1 µM [7]: 54%
- GI50 ([8]; read-out: GI50): > 100 µM
- CC50 [8, 31]: > 100 µM
- TGI ([8]; read-out: TGI): > 100 µM
- GI50 ([8]; read-out: pGI50 (converted)): > 100 µM
- CC50 [8, 32]: > 100 µM
- TGI ([8]; read-out: pTGI (converted)): > 100 µM
- growth at 1 µM [9]: 58%
- growth at 100 µM [10]: 75%
- growth at 0.01 µM [11]: 108%
- growth at 0.1 µM [12]: 94%
- growth at 100 µM [13]: 49%
- growth at 0.01 µM [14]: 99%
- growth at 0.01 µM [15]: 94%
- growth at 1 µM [16]: 92%
- growth at 100 µM [17]: 17%
- growth at 0.01 µM [18]: 58%
- growth at 0.01 µM [19]: 52%
- growth at 0.1 µM [20]: 94%
- growth at 1 µM [21]: 93%
- growth at 100 µM [22]: 19%
- growth at 0.01 µM [23]: 93%
- growth at 0.1 µM [24]: 95%
- growth at 100 µM [25]: 31%
- growth at 0.01 µM [26]: 104%
- growth at 100 µM [27]: 78%
- growth at 0.1 µM [28]: 65%
- growth at 0.1 µM [29]: 97%
- GI50 ([30]; read-out: GI50): 2.73 µM
- CC50 [30, 31]: > 100 µM
- TGI ([30]; read-out: TGI): > 100 µM
- GI50 ([30]; read-out: pGI50 (converted)): 2.75 µM
- CC50 [30, 32]: > 100 µM
- TGI ([30]; read-out: pTGI (converted)): > 100 µM

— ChEMBL document CHEMBL4308841, “Synthesis, in vitro antiproliferative activity, and kinase inhibitory effects of pyrazole-containing diarylureas and diarylamides” (Eur J Med Chem, 2018)
